Reference: PubChem BioAssay AID1963967 (Molecular Pharmacology Branch, DTP, NCI, 2024)
Values joined by “and” are separate entries in the source; they are usually repeats but may differ in a detail not shown here. Equal values may be shown once.

Test system: 855422-203-R-J1-PDC spheroids with HUVEC/MSC, viability
Experiment: Anticancer human tumor 855422-203-R-J1-PDC patient-derived bladder carcinoma cell line growth inhibition [PI3K]
Details: for viability, T/C: stronger effect = lower value
Source text: Combinatorial screen of targeted agents with the PI3K inhibitors inavolisib, alpelisib, duvelisib, and copanlisib in multi-cell type tumor spheroids
A high-throughput screen of multi-cell type tumor spheroids was designed to identify active combinations of targeted small molecules and PI3K pathway inhibitors. Complex spheroids include a stromal component modeled by human endothelial cells (HUVEC) and fibroblasts modeled by human mesenchymal stem cells (MSCs). The concentration ranges selected for each drug and investigational agent were based upon clinically achievable concentrations if the clinical Cmax of the agent was known.
Compounds. The drugs and investigational agents: inavolisib (NSC800729), alpelisib (NSC765974), duvelisib (NSC772469), copanlisib (NSC816437), ipatasertib (NSC767898), afuresertib (NSC778305), talazoparib (NSC767125), sapanisertib (NSC764658), selumetinib (NSC741078), tovorafenib (DAY101, NSC766906), vemurafenib (NSC761431), ravoxertinib (NSC781343), sotorasib (NSC818433), MRTX1133 (NSC 836407), abemaciclib (NSC 768073), palbociclib (NSC758247), venetoclax (NSC 766270), SY5609 (NSC837396), enzalutamide (NSC755605), and darolutamide (NSC825331), were obtained from the National Cancer Institute (NCI) Developmental Therapeutics Program Chemical Repository. The FDA-approved anticancer drug set is available from the NCI Developmental Therapeutics Program. […] The stock solutions were prepared in dimethyl sulfoxide (DMSO, Sigma-Aldrich, St. Louis, MO, cat. D2650) at 800-fold the tested concentration and stored at -70 degrees C prior to their use. All drugs and investigational agents were tested over a range starting from a high concentration at or near the clinical Cmax and decreasing in half-log increments. If the clinical Cmax for an agent had not been determined, the highest concentration tested was 10 microM.
Cell Culture. All cells were maintained in an incubator at 37 degrees C and 5% CO2 with 95% humidity. The PDC lines were cultured according to standard operating procedures established by the NCI PDMR (https://pdmr.cancer.gov/sops/default.htm). All PDCs were thawed and cultured in Matrigel-coated flasks prepared with a working solution of 1X Ham's F-12 nutrient mix, without supplementation (Invitrogen, Waltham, MA, cat. 11765054), 100 U/mL penicillin-streptomycin (Invitrogen, cat. 15140122), and 2.5% Matrigel (Corning Inc., Corning, NY, cat. 354248) for the first three passages. The 354836-022-R-J1-PDC, 475296-252-R-J1-PDC, and 997726-040-R-J2-PDC lines were cultured in 6A media, which includes advanced DMEM/F-12 (Thermo Fisher Scientific, cat. 12634028), 10 mM HEPES (Thermo Fisher Scientific, cat. 15630080), 1X GlutaMAX supplement (Thermo Fisher Scientific, cat. 35050061), 0.1 mg/mL primocin (InvivoGen, San Diego, CA, cat. ant-pm-2), 10% defined fetal bovine serum, heat inactivated (HyClone Laboratories Inc., Logan, UT, cat. SH30070.03HI), 50% L-WRN conditioned media (ATCC, cat. CRL-3276), 1.25 mM N-Acetyl-L-cysteine (Sigma-Aldrich, cat. A9165), 10 mM nicotinamide (Sigma-Aldrich, cat. N0636), 1X B-27 supplement (Thermo Fisher Scientific, cat. 17504044), 1X N-2 supplement (Thermo Fisher Scientific, cat. 17502048), and 10 microM Y-27632 dihydrochloride (Tocris Bioscience, Bristol, United Kingdom, cat. 1254). The 624824-186-R-J2-PDC line was cultured in 6C/Colon 1B media, which includes all 6A media components plus 50 ng/mL human EGF recombinant protein (Thermo Fisher Scientific, cat. PHG0311). […]

[1] = curve of first compound, second compound 0.00316 µM
[2] = curve of first compound, second compound 0.01 µM
[3] = curve of first compound, second compound 0.0316 µM
[4] = curve of first compound, second compound 0.1 µM
[5] = curve of first compound, second compound 0.316 µM
[6] = curve of first compound, second compound 1 µM
[7] = second compound 0.00316 µM, first compound 0.0316 µM
[8] = second compound 0.00316 µM, first compound 0.1 µM
[9] = second compound 0.00316 µM, first compound 0.316 µM
[10] = second compound 0.00316 µM, first compound 1 µM
[11] = second compound 0.00316 µM, first compound 3.16 µM
[12] = second compound 0.00316 µM, first compound 10 µM
[13] = second compound 0.01 µM, first compound 0.0316 µM
[14] = second compound 0.01 µM, first compound 0.1 µM
[15] = second compound 0.01 µM, first compound 0.316 µM
[16] = second compound 0.01 µM, first compound 1 µM
[17] = second compound 0.01 µM, first compound 3.16 µM
[18] = second compound 0.01 µM, first compound 10 µM
[19] = second compound 0.0316 µM, first compound 0.0316 µM
[20] = second compound 0.0316 µM, first compound 0.1 µM
[21] = second compound 0.0316 µM, first compound 0.316 µM
[22] = second compound 0.0316 µM, first compound 1 µM
[23] = second compound 0.0316 µM, first compound 3.16 µM
[24] = second compound 0.0316 µM, first compound 10 µM
[25] = second compound 0.1 µM, first compound 0.0316 µM
[26] = second compound 0.1 µM, first compound 0.1 µM
[27] = second compound 0.1 µM, first compound 0.316 µM
[28] = second compound 0.1 µM, first compound 1 µM
[29] = second compound 0.1 µM, first compound 3.16 µM
[30] = second compound 0.1 µM, first compound 10 µM
[31] = second compound 0.316 µM, first compound 0.0316 µM
[32] = second compound 0.316 µM, first compound 0.1 µM
[33] = second compound 0.316 µM, first compound 0.316 µM
[34] = second compound 0.316 µM, first compound 1 µM
[35] = second compound 0.316 µM, first compound 3.16 µM
[36] = second compound 0.316 µM, first compound 10 µM
[37] = second compound 1 µM, first compound 0.0316 µM
[38] = second compound 1 µM, first compound 0.1 µM
[39] = second compound 1 µM, first compound 0.316 µM
[40] = second compound 1 µM, first compound 1 µM
[41] = second compound 1 µM, first compound 3.16 µM
[42] = second compound 1 µM, first compound 10 µM
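Also: agents incubated with spheroids for one week before read-out.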
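For viability, T/C in this document: 100% = DMSO vehicle-treated control wells.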

For `Cn1nccc1Nc1nccc(-c2ccn(C(CO)c3ccc(Cl)c(F)c3)c(=O)c2)n1` (stereo not drawn) + COc1c(OCCCN2CCOCC2)ccc2c3n(c(=NC(=O)c4cnc(N)nc4)nc12)CCN3, the IC50 [1] was 7090 nM, the IC50 [2] was 5010 nM and the IC50 [3] was 1040 nM. For the same compound, the IC50 [4] was under 31.6 nM, the IC50 [5] was under 31.6 nM and the IC50 [6] was under 31.6 nM. The viability, T/C [7] was 94.4%, the viability, T/C [8] was 91.3% and the viability, T/C [9] was 106%. For the same compound, the viability, T/C [10] was 93.5%, the viability, T/C [11] was 83.7% and the viability, T/C [12] was 35.7%. The viability, T/C [13] was 88.8%, the viability, T/C [14] was 91.7% and the viability, T/C [15] was 83.3%. The viability, T/C [16] was 94.7%, the viability, T/C [17] was 67% and the viability, T/C [18] was 24.3%. The viability, T/C [19] was 61%, the viability, T/C [20] was 59.8% and the viability, T/C [21] was 53.6%. For the same compound, the viability, T/C [22] was 51.6%, the viability, T/C [23] was 38.1% and the viability, T/C [24] was 12.8%. The viability, T/C [25] was 25.1%, the viability, T/C [26] was 22.6% and the viability, T/C [27] was 22.3%. The viability, T/C [28] was 17.9%, the viability, T/C [29] was 10.5% and the viability, T/C [30] was 6.36%. The viability, T/C [31] was 7.7%, the viability, T/C [32] was 8.43% and the viability, T/C [33] was 5.39%. The viability, T/C [34] was 3.86%, the viability, T/C [35] was 3.44% and the viability, T/C [36] was 1.9%. For the same compound, the viability, T/C [37] was 2.72%, the viability, T/C [38] was 2.95% and the viability, T/C [39] was 1.79%. The viability, T/C [40] was 2.14%, the viability, T/C [41] was 0.55% and the viability, T/C [42] was 0.89%.
`CC(C)NCC(C(=O)N1CCN(c2ncnc3c2C(C)CC3O)CC1)c1ccc(Cl)cc1` (stereo not drawn) + CC(Nc1ncnc2nc[nH]c12)c1cc2cccc(Cl)c2c(=O)n1-c1ccccc1 gave an IC50 [3] of 1160 nM, an IC50 [4] of 1120 nM and an IC50 [5] of 1130 nM. The IC50 [6] was 1130 nM, the IC50 (curve of first compound, second compound 3.16 µM) was 1280 nM and the IC50 (curve of first compound, second compound 10 µM) was 937 nM. For the same compound, the viability, T/C [19] was 114%, the viability, T/C [20] was 83.2% and the viability, T/C [21] was 83.9%. It also gave a viability, T/C [22] of 46.1%, a viability, T/C [23] of 34.5% and a viability, T/C [24] of 16.8%. For the same compound, the viability, T/C [25] was 103%, the viability, T/C [26] was 88.2% and the viability, T/C [27] was 70%. The viability, T/C [28] was 51.4%, the viability, T/C [29] was 34.9% and the viability, T/C [30] was 19%. For the same compound, the viability, T/C [31] was 101%, the viability, T/C [32] was 90.4% and the viability, T/C [33] was 75.5%. It also gave a viability, T/C [34] of 51.7%, a viability, T/C [35] of 31.9% and a viability, T/C [36] of 18.8%. The viability, T/C [37] was 88.6%, the viability, T/C [38] was 93% and the viability, T/C [39] was 81.3%. For the same compound, the viability, T/C [40] was 50.1%, the viability, T/C [41] was 32.8% and the viability, T/C [42] was 19.5%. For the same compound, the viability, T/C (second compound 3.16 µM, first compound 0.0316 µM) was 88.4%, the viability, T/C (second compound 3.16 µM, first compound 0.1 µM) was 81.8% and the viability, T/C (second compound 3.16 µM, first compound 0.316 µM) was 73.1%. It also gave a viability, T/C (second compound 3.16 µM, first compound 1 µM) of 47.6%, a viability, T/C (second compound 3.16 µM, first compound 3.16 µM) of 40% and a viability, T/C (second compound 3.16 µM, first compound 10 µM) of 16.3%. The viability, T/C (second compound 10 µM, first compound 0.0316 µM) was 85.3%, the viability, T/C (second compound 10 µM, first compound 0.1 µM) was 81.9% and the viability, T/C (second compound 10 µM, first compound 0.316 µM) was 69.8%. For the same compound, the viability, T/C (second compound 10 µM, first compound 1 µM) was 47.1%, the viability, T/C (second compound 10 µM, first compound 3.16 µM) was 30.1% and the viability, T/C (second compound 10 µM, first compound 10 µM) was 15.2%.
`Cn1ncnc1[C@H]1c2n[nH]c(=O)c3cc(F)cc(c23)N[C@@H]1c1ccc(F)cc1` was tested, and the viability, T/C (compound 0.000316 µM) was 113% [middle of 4 runs], the viability, T/C (compound 0.001 µM) was 107% [middle of 4 runs] and the viability, T/C (compound 0.00316 µM) was 104% (2×) and 108% and 109%. For the same compound, the viability, T/C (compound 0.01 µM) was 101% [middle of 4 runs], the viability, T/C (compound 0.0316 µM) was 110% [middle of 4 runs] and the viability, T/C (compound 0.1 µM) was 107% and 100% (3×). For the same compound, the IC50 (curve of compound) was over 100 nM.
Compound `Cn1ncc(Cl)c1-c1cc(C(=O)NC(CN)Cc2cccc(F)c2)sc1Cl` (stereo not drawn) + COc1c(OCCCN2CCOCC2)ccc2c3n(c(=NC(=O)c4cnc(N)nc4)nc12)CCN3 has an IC50 [1] of 728 nM, an IC50 [2] of 624 nM and an IC50 [3] of 178 nM. The IC50 [4] was under 31.6 nM, the IC50 [5] was under 31.6 nM and the IC50 [6] was under 31.6 nM. It also gave a viability, T/C [7] of 88.5%, a viability, T/C [8] of 73.7% and a viability, T/C [9] of 63.2%. It also gave a viability, T/C [10] of 45.5%, a viability, T/C [11] of 26.9% and a viability, T/C [12] of 6.73%. The viability, T/C [13] was 77.8%, the viability, T/C [14] was 69.8% and the viability, T/C [15] was 62%. The viability, T/C [16] was 42.7%, the viability, T/C [17] was 19.6% and the viability, T/C [18] was 5.83%. For the same compound, the viability, T/C [19] was 60.7%, the viability, T/C [20] was 54.4% and the viability, T/C [21] was 45.2%. The viability, T/C [22] was 29.4%, the viability, T/C [23] was 13% and the viability, T/C [24] was 3.13%. The viability, T/C [25] was 27.6%, the viability, T/C [26] was 27.3% and the viability, T/C [27] was 19.7%. The viability, T/C [28] was 15.4%, the viability, T/C [29] was 7.63% and the viability, T/C [30] was 0.88%. For the same compound, the viability, T/C [31] was 8.42%, the viability, T/C [32] was 7.12% and the viability, T/C [33] was 8.39%. For the same compound, the viability, T/C [34] was 7.12%, the viability, T/C [35] was 4.22% and the viability, T/C [36] was 0.34%. It also gave a viability, T/C [37] of 3.34%, a viability, T/C [38] of 4.22% and a viability, T/C [39] of 3.37%. It also gave a viability, T/C [40] of 4.04%, a viability, T/C [41] of 1.54% and a viability, T/C [42] of 1.32%.
